{
  "source": "patent EP0808325B1",
  "about": "“[…] […] SERIES FOR […] GABA RECEPTOR” (priority 1994, dated 1996)",
  "key": {"[1]": {"test_system": "mice", "assay": "light/dark transition test", "format": "in vivo, N.I.H. Swiss-Webster mice", "conditions": "IP", "from_the_text": "The light/dark transition test (Crawley and Goodwin, Pharmacol. Biochem. Behav. 13:67-70 1980) is based on the observation that rodents naturally tend to explore novel environments, but open, brightly lit arenas are aversive to the rodents and inhibit exploratory behavior (Christmas and Maxwell, Neuropharmacol. 9:17-29 1970; File, J. Neurosci. Meth. 2:219-238 1980).\nMale N.I.H. Swiss-Webster mice (Harlan, Harlan, Indianapolis, IN) weighing 15-20 g were housed four per cage in polyethylene cages with sawdust bedding. The colony room was environmentally controlled (22°C) with a 12 hr light/dark cycle (0600-1800 hr). Food and water were available ad libitum, except during testing. The experiments were run from 0700-1500 hr and groups were counterbalanced for time of day effects. Mice were only administered drug or vehicle once.\nThe method used was a modification of methods previously described (Wieland et al., Br. Res. 565:263-268 (1991)). The apparatus included two 2-compartment automated test chambers (Model RXYZCM16, Omnitech Electronics, Columbus, OH). The open compartment was connected to the enclosed compartment via a 7.5 x 7.5 cm passageway. The open compartment was brightly lit using a 200 W incandescent light bulb. The experimental room was kept dark. Interruptions of the infrared beams in either chamber were automatically recorded by being linked to a computer through a Digiscan Analyzer (Omnitech Electronics) and the data was analyzed using the Integrated Lab Animal Monitoring System (Omnitech Electronics).\nN.I.H. Swiss-Webster mice were administered vehicle or test drug intraperitoneally (IP), 10 min later they were placed in the center of the lit compartment. The number of transitions between the lit and dark chambers, total activity in the lit chamber and the time spent in the lit chamber were measured during a 10 min test period."}, "[2]": {"test_system": "maximal electroshock", "assay": "maximal electroshock test", "format": "in vivo, mice", "conditions": "Mus musculus, ip, 20% hydroxypropyl-β-cyclodextrin in water", "from_the_text": "The anticonvulsant tests are similar to that described above. […]"}, "[3]": {"test_system": "mice", "assay": "elevated plus-maze", "format": "in vivo, N.I.H. Swiss-Webster mice", "outline": "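Male Swiss-Webster mice (15-20 g), dosed once with drug or vehicle, were placed on an elevated plus-maze 10 min post-injection for 5 min. Open-arm entries and open-arm time recorded, each as a percentage of total arm entries or time; center time excluded.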"}, "[4]": {"test_system": "metrazol induced convulsions", "assay": "animal or person", "format": "in vivo, mice"}, "[5]": {"test_system": "rats", "assay": "Vogel test", "format": "in vivo", "conditions": "i.c.v., b-CD, 10 ug", "from_the_text": "The Vogel test is based on the development of a conflict between a highly motivated behavior and an aversion. For this test, the strong motivation is thirst. The animal is water deprived for 12-16 hrs to produce the motivation to drink. During the training period the animals are exposed to the testing environment so they become accustomed to the drinking spout and minimize the fear of a novel environment. Following training, the animals are allowed access to water for 2 hrs. During this time, the animals will drink and eat their normal amount of water and food, compensating for the deprivation time. However, this schedule still produces a strong motivation to drink during the testing period.\nHaving been deprived of water for twelve to sixteen hours, an animal is placed in a test cage where it is allowed to drink freely for five minutes. This period is used to habituate the animal to the environment and the drinking spout Following the training period, animals have access to water and food in their home cage for 2 hrs. Food is available at all times. Twenty-four hours later, drug is administered to the animal intracerebroventricularly.\nAfter an indicated delay started from the time of injection the animal is again placed in the test cage for ten minutes. A computer counts each time the animal licks, and after every twentieth lick administers a mild electric stimulus across the tongue and/or feet. The electrical stimulus consists of a 0.6 mA current with a duration of 100 msec. This procedure produces a state of conflict for the animal that is reduced by the administration of clinically used anxiolytic agents (i.e., Valium). For dose-response curves, separate groups of animals are injected with increasing doses of test drug and are tested at a predetermined time."}},
  "data": [
    {"smiles": "CC(=O)[C@H]1CC[C@H]2[C@@H]3CC[C@H]4C[C@H](O)CC[C@]4(C)[C@H]3CC[C@]12C", "note": "[3α-hydroxy-5α-pregnan-20-one, reference compound]", "values": [
      {"measurement": "activity", "setting": "[1]; 10 & 20 mg/kg, compared to control groups", "result": "significant (p < 0.01) increases"},
      {"measurement": "number of transitions between the dark box and the light box", "setting": "[1]; at doses tested, versus control (Dunnett's t-test)", "result": "significantly increased"},
      {"measurement": "ED50", "setting": "[2]", "result": 28.6, "unit": "mg/kg"},
      {"measurement": "time spent on the open-arms", "setting": "[3]; 10 mg/kg (p ≤ 0.01)", "result": "significant increases"},
      {"measurement": "entries into the open-arms", "setting": "[3]; 20 mg/kg (p ≤ 0.05)", "result": "significant increase"},
      {"measurement": "% Control", "setting": "[3]; IP, 50% hpbcd, 20 mg/kg", "result": 143.7, "unit": "%"},
      {"measurement": "% Protected", "setting": "[4]; IP, 50% hpbcd, 10 mg/kg, 10 minutes prior to metrazol (85 mg/kg)", "result": 100, "unit": "%"},
      {"measurement": "ED50", "setting": "[4]; Mus musculus, metrazol s.c., steroid i.p., 20% hydroxypropyl-β-cyclodextrin in water", "result": 4.9, "unit": "mg/kg"},
      {"measurement": "Vogel (% of control)", "setting": "[5]", "result": "431.1 % of control"}
    ]}
  ]
}
